Assay results as given in article PMC3604699 (Biochemistry, 2011).

Biological target: sortase A (SrtA) (Staphylococcus aureus, UniProt Q2FV99)
Assay: HPLC transpeptidation assay, time-dependent inactivation kinetics
Assay type: biochemical
Settings: read-out: KI

sortase A (SrtA), sequence (Q2FV99 25-206): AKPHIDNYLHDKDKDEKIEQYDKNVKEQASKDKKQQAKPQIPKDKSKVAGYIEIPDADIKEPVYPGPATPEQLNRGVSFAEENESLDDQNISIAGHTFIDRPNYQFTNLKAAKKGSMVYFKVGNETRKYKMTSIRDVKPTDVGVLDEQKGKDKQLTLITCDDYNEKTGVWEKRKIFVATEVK

OCl [NaOCl]
KI (inactivation): 11.8 ± 3.1 mM
